Among the data in ChEMBL document CHEMBL1201862, “PubChem BioAssay data set” (2004) are EC50, AC50 and IC50 values, retold here.

One assay has as its target Mu-type opioid receptor (Homo sapiens, UniProt P35372). Briefly: Counterscreen for agonists of heterodimerization of the mu 1 (OPRM1) and delta 1 (OPRD1) opioid receptors: Luminescence-based cell-based high throughput dose response assay to identify agonists of OPRM1 homodimerization. The format is functional.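 Note: U2OS cells expressing OPRM1 and beta-arrestin as split beta-galactosidase partners.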
Assay [1] in a line: NIH3T3 cell viability loss – ATP luminescence, mouse fibroblasts, counter-screen, dose response (AID 2010).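 Note: cells exposed to compound for about 90 hours before reading.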 In kind it is functional, cell-based.
A further assay has as its target T1, CAAX prenyl protease 2 (Saccharomyces cerevisiae S288c, UniProt Q03530).
T1 sequence (Q03530 whole entry): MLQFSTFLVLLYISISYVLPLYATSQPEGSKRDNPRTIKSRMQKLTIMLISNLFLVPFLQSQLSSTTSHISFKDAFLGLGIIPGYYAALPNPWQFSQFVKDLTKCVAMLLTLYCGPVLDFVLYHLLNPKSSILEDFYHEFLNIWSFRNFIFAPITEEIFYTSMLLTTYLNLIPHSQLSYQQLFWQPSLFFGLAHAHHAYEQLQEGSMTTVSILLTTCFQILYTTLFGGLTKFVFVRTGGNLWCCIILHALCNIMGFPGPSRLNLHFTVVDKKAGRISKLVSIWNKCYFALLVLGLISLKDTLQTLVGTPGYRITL
The format is biochemical.

For assay [2], the target named is T2, Sentrin-specific protease 8 (Homo sapiens, UniProt Q96LD8).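 Note: luminescence read-out of SENP8 inhibition, dose-response confirmation following an ultra-high-throughput screen.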
T2 sequence (Q96LD8 whole entry): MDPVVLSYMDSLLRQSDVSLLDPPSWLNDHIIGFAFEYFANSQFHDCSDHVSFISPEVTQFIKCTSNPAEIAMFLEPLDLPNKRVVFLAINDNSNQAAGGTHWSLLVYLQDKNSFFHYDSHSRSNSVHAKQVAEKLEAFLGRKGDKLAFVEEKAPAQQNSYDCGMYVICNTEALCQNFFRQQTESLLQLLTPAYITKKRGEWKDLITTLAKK
In kind it is functional.

A further assay addresses Phospholipase A2 (Homo sapiens, UniProt P04054). In kind it is functional.
In assay [3] the target is Serine/threonine-protein phosphatase (Homo sapiens, UniProt Q9BPW0). Briefly: inhibition of protein phosphatase 5 activity – biochemical, fluorescence, dose response (AID 2395).
The target of assay [4] is Protein-tyrosine kinase 2-beta (Homo sapiens, UniProt Q14289).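 Note: potency of inhibitors of PYK2 kinase phosphorylation of poly-GT substrate.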
For a further assay, the target named is SUMO E1/E2 (Homo sapiens, UniProt P63279+Q9UBE0+Q9UBT2). Briefly: SAR analysis of SUMOylation using HTRF in an in-Vitro dose response assay. [Related pubchem assays (depositor defined):AID2006, AID2011, AID2018, AID2069, AID2658]. In kind it is functional. In general terms: Time-resolved FRET reads energy transfer from a long-lived donor to a nearby acceptor.

The target in a further assay is Nonstructural protein 1 (Influenza A virus, UniProt Q194T2). The format is functional, Influenza A virus (A/California/07/2009(H1N1)).
Assay [5] has as its target Ras and Rab interactor 1/Tyrosine-protein kinase ABL1 (Homo sapiens, UniProt P00519+Q13671). The format is functional.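 Note: biochemical TR-FRET dose-response test measuring inhibition of binding between Rin1 and Abl proteins.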
The next assay relates to HEK293. As to the kind of experiment: optical interference in Abeta FP readout, dose response, artefact control for IDE activator project, biochemical, fluorescence polarization (AID 588442). In kind it is functional, cell-based. The following applies: Homo sapiens. A general note: Polarisation of emitted light reports the rotation of a fluorescent probe.
The target of the next assay is Beta-lactamase (Salmonella choleraesuis (strain SC-B67), UniProt Q5J463).
The target in assay [6] is T3, Histone-lysine N-methyltransferase NSD2 (Homo sapiens, UniProt O96028).
T3 sequence (O96028 whole entry): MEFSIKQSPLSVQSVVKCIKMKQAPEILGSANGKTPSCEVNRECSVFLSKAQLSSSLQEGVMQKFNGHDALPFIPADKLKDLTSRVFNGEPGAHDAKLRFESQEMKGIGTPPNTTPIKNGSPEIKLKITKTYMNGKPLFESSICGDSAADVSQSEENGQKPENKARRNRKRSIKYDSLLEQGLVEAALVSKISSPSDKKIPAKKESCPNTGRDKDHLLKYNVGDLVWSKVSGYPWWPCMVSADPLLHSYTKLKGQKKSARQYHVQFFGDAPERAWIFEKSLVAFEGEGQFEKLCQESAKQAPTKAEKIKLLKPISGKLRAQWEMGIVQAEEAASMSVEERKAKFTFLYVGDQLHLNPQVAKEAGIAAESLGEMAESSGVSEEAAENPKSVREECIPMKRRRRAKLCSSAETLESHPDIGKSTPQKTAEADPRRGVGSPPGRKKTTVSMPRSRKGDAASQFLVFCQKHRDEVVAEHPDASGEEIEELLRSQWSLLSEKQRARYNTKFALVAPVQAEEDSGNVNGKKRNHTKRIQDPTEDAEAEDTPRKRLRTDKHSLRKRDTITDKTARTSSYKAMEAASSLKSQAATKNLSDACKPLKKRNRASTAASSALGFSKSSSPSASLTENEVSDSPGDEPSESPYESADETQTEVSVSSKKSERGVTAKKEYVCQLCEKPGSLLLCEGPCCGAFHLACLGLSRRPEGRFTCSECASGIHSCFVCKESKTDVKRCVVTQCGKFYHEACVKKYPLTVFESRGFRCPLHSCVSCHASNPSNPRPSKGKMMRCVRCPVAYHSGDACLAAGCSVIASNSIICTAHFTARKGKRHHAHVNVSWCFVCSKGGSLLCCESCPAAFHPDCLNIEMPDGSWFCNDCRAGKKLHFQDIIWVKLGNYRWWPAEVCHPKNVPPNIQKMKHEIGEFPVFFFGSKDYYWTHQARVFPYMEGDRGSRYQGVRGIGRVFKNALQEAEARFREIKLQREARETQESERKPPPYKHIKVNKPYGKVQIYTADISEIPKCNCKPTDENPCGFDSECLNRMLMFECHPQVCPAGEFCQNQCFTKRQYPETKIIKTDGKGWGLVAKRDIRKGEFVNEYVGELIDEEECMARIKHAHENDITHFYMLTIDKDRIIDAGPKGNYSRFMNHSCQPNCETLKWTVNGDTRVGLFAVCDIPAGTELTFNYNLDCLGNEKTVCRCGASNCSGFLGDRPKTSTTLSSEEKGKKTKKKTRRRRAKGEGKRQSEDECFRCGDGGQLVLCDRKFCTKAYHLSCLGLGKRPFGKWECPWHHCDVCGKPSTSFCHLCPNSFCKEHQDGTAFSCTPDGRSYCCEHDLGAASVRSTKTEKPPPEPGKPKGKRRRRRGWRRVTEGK
In kind it is biochemical.

The target of assay [7] is Voltage-gated N-type calcium channel alpha-1B subunit/Amyloid beta A4 precursor protein-binding family A member 1 (Homo sapiens, UniProt Q00975+Q02410). In kind it is protein assay.

Structures are written as SMILES. Activity calls are given as the source filed them. Some results are limits rather than exact numbers.

Sequence of Protein-tyrosine kinase 2-beta (Q14289 whole entry): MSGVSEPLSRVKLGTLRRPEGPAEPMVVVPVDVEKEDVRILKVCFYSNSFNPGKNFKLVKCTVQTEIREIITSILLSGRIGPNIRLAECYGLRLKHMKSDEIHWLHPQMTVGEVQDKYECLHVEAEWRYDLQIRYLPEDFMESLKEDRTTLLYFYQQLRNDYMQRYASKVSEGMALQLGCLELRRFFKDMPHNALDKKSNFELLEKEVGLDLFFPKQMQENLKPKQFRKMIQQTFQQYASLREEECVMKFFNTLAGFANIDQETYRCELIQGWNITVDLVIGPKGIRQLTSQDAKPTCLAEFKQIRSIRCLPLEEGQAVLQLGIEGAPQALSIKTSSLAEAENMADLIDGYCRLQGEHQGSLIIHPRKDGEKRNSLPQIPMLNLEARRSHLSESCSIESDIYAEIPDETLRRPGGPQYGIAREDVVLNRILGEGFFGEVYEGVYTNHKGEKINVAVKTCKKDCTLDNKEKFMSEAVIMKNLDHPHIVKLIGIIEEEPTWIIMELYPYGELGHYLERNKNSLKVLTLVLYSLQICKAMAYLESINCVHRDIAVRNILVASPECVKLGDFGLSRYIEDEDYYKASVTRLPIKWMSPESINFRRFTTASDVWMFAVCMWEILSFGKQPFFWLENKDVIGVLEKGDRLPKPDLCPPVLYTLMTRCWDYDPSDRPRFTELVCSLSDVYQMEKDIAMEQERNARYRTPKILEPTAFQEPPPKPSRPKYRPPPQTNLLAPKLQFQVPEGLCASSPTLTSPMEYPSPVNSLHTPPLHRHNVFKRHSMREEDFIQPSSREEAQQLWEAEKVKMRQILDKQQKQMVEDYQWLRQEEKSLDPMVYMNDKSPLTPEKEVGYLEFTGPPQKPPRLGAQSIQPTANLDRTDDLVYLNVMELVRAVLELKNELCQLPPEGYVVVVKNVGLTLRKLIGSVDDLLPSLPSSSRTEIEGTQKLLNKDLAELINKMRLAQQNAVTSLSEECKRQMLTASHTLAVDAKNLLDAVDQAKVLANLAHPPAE
Sequence of Beta-lactamase (Q5J463 whole entry): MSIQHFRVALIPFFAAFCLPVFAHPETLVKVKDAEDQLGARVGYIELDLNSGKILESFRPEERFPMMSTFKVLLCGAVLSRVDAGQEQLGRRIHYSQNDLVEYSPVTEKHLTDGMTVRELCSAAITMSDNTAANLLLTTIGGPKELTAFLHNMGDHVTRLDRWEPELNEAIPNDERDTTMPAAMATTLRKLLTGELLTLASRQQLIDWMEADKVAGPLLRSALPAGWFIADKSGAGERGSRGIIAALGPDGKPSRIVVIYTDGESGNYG
Sequence of Nonstructural protein 1 (Q194T2 whole entry): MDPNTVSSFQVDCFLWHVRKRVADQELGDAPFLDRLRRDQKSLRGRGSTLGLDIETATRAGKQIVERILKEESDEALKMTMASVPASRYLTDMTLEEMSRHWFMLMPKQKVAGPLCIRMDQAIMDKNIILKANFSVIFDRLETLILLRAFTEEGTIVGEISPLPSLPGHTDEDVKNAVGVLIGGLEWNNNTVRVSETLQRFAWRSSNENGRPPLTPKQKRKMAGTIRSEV
Sequence of Mu-type opioid receptor (P35372 whole entry): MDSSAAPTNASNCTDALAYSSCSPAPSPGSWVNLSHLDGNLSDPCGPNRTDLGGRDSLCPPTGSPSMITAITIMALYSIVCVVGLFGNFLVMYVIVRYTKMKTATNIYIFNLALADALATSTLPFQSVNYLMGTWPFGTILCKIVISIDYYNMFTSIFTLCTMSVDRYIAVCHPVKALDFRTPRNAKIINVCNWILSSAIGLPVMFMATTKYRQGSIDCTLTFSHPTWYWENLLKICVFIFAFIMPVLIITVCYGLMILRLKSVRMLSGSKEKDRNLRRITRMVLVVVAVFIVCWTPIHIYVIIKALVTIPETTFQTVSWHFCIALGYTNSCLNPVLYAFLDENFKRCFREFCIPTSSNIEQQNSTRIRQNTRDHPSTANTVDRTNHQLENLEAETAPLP
Sequence of Voltage-gated N-type calcium channel alpha-1B subunit/Amyloid beta A4 precursor protein-binding family A member 1 (Q00975 whole entry): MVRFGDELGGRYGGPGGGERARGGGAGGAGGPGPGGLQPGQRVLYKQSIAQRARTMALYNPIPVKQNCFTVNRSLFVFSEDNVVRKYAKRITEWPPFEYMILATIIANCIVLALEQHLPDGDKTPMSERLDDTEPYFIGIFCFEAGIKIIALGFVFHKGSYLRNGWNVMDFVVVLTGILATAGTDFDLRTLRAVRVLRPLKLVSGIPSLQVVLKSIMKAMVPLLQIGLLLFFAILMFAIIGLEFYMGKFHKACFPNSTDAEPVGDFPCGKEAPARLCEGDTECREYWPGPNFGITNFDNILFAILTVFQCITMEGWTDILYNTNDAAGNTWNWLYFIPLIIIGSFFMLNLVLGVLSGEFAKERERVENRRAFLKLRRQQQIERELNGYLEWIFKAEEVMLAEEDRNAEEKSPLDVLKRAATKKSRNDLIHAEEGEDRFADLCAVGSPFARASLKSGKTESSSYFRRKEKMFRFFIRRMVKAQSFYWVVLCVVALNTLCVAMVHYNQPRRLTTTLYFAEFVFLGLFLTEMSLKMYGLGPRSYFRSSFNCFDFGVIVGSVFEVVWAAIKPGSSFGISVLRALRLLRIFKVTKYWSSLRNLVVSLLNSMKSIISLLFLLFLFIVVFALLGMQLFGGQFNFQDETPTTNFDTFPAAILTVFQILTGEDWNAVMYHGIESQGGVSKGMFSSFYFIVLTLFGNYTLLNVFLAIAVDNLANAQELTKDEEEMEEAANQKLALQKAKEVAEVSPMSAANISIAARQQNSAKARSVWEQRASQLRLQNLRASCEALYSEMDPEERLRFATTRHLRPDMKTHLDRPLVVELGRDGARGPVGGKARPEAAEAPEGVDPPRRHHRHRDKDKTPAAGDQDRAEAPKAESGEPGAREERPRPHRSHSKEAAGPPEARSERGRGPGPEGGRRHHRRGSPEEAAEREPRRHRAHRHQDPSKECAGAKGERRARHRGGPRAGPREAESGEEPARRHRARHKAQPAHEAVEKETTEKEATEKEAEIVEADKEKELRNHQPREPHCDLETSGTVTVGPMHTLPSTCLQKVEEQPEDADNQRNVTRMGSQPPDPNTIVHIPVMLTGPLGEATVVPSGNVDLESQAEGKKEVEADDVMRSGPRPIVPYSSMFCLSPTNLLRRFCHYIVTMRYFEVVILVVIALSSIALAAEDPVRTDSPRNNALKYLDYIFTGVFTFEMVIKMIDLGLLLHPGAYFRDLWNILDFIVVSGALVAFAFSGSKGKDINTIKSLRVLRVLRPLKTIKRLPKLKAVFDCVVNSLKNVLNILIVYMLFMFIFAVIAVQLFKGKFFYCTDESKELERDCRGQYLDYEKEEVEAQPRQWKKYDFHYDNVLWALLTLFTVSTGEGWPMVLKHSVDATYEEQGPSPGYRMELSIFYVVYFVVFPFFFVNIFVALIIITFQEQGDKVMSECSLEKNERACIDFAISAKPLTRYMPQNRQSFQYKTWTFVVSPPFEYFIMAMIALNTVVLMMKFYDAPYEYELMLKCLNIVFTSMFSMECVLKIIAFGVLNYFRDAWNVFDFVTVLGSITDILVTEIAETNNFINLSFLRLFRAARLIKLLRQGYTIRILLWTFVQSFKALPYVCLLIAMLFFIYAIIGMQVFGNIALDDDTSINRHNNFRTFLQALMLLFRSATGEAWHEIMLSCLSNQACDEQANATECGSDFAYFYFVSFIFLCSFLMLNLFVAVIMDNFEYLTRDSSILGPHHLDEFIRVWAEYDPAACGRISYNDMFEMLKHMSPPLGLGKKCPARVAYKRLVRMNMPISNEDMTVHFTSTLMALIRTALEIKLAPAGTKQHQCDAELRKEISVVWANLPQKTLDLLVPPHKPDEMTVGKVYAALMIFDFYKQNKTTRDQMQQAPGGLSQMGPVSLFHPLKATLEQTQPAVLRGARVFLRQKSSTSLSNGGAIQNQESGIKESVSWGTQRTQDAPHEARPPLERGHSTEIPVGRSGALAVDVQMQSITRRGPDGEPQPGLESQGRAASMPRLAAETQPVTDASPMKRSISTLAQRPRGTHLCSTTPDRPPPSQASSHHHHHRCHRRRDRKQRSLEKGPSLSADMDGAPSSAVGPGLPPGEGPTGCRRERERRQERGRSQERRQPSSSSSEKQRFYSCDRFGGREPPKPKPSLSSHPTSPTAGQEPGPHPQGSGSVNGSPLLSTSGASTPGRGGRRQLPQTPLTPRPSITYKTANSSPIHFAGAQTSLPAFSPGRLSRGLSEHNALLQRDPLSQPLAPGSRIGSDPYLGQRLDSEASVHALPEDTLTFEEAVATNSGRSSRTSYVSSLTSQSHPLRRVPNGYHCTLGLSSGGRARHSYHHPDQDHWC
Sequence of Voltage-gated N-type calcium channel alpha-1B subunit/Amyloid beta A4 precursor protein-binding family A member 1 (Q02410 whole entry): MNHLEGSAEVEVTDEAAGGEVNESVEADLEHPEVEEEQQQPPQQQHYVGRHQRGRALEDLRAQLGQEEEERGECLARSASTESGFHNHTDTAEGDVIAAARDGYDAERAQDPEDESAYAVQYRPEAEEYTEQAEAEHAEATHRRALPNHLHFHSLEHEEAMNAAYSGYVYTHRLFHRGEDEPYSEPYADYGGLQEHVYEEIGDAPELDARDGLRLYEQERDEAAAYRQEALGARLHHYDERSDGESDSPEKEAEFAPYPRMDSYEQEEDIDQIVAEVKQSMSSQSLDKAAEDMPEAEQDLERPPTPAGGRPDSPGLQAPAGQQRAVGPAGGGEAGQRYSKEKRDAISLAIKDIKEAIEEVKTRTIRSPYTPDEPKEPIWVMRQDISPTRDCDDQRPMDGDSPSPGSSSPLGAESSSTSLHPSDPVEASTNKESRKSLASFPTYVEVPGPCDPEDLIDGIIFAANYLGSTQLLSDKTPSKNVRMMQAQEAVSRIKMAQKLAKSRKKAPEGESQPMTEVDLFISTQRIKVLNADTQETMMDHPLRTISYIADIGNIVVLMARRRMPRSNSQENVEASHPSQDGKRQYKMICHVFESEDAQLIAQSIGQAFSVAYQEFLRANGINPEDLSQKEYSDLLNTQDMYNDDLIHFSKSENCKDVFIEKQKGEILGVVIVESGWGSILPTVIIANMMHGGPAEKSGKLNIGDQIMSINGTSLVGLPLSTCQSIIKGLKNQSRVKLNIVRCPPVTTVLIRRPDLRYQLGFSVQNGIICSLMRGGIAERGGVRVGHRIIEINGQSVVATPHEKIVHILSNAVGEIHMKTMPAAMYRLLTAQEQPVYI

With `CCCCCCCCCCOC(=O)C[n+]1c(COc2ccccc2C)n(C)c2ccccc21`, the EC50 (usually the midpoint of the concentration-response curve) was > 92.5 µM (inactive) on Mu-type opioid receptor and > 60 µM (not active) in assay [1]. In addition, the AC50 (in general, the midpoint of the concentration-response curve, whichever way the signal moves) at CAAX prenyl protease 2 is 8.72 µM (active).
On to `Oc1nc(Nc2ccccc2)cc2ccccc12`, for which the IC50 (commonly the point on the concentration scale where inhibition reaches its midpoint) in assay [2] was 0.899 µM (active); at Phospholipase A2, > 80 µM (inactive); in [3] it was 31.6 µM (not active); in assay [4], > 69.5 µM (not active); at SUMO E1/E2, 6.32 µM (active).
Regarding `COc1cc(OC)c(-c2c3cc(O)c(=O)cc-3oc3cc(O)c(O)cc23)cc1OC`, the IC50 was 41.7 µM (active) on Nonstructural protein 1, 0.724 µM (active) in [5], 2.13 µM (active) at Beta-lactamase and > 50 µM (inactive) in assay [7]. In addition, the concentration for a half-maximal effect (EC50) with HEK293 is > 6.21 µM (active). For the same molecule, the concentration at half-maximal activity (AC50) in assay [6] was 0.282 µM (active).
